Drawing on PubChem BioAssay (NCI), this text covers TGI for ten molecules.

Test systems include SW-620 colon; HS 578T breast; MOLT-4 leukemia; CCRF-CEM leukemia; 786-0 renal; NCI-H23 lung; SK-MEL-2 melanoma; SR leukemia; TK-10 renal; MCF7 breast; NCI/ADR-RES ovarian.
Experiment in all cases: growth of human tumour cells (NCI), 48 h

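Briefly, cells in 96-well plates were exposed to five compound concentrations for 48 h, and endpoints were estimated by linear interpolation. TGI denotes the concentration required for complete inhibition of growth.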 Bounds are passed on as bounds.

As for `CC(=O)OCC1OC(O/C=C(\CN=[N+]=[N-])C(C)=O)C(OC(C)=O)C(OC(C)=O)C1OC(C)=O` (stereo not given), the TGI with SW-620 colon is 16.9 µM; in the assay with HS 578T breast it was more than 100 µM; in the assay with MOLT-4 leukemia, 10.5 µM; in the assay with CCRF-CEM leukemia, 3.59 µM; in the assay with 786-0 renal, 18.2 µM; in the assay with NCI-H23 lung it was 25.6 µM. For the same molecule, the TGI is 37.2 µM with SK-MEL-2 melanoma; 7.69 µM in the assay on SR leukemia; 19.1 µM with TK-10 renal; 28 µM in the assay with MCF7 breast; more than 100 µM in the assay on NCI/ADR-RES ovarian.
For the molecule `Oc1ccc(O)c(CNc2ccccc2)c1`, the TGI in the assay on SW-620 colon was more than 100 µM; with HS 578T breast it was more than 100 µM; in the assay on MOLT-4 leukemia, more than 100 µM; with CCRF-CEM leukemia, more than 100 µM; in the assay with 786-0 renal, 26.1 µM; with NCI-H23 lung, 32.4 µM. The TGI with SK-MEL-2 melanoma was 82.2 µM; in the assay with SR leukemia, 75.2 µM; in the assay with TK-10 renal it was 39.1 µM; in the assay with MCF7 breast it was 57.7 µM; in the assay with NCI/ADR-RES ovarian, more than 100 µM.
On to `CCOC(=O)C(C(=O)OCC)=C1NC2(c3ccccc3Nc3ccc(C)cc32)C(C(=O)OC)S1` (stereo not given), for which the TGI was more than 100 µM in the assay on SW-620 colon; 69.2 µM in the assay on HS 578T breast; more than 100 µM in the assay with MOLT-4 leukemia; more than 100 µM in the assay with CCRF-CEM leukemia; more than 100 µM in the assay with 786-0 renal; more than 100 µM in the assay with NCI-H23 lung. Also, the TGI is 63.1 µM in the assay with SK-MEL-2 melanoma; more than 100 µM with SR leukemia; more than 100 µM in the assay on TK-10 renal; more than 100 µM in the assay with MCF7 breast; more than 100 µM in the assay on NCI/ADR-RES ovarian.
Regarding `Cc1ccc(S(=O)(=O)N2CCNCCN(S(=O)(=O)c3ccc(C)cc3)CCN(S(=O)(=O)c3ccc(C)cc3)CC2)cc1`, the TGI in the assay on SW-620 colon, in the assay with HS 578T breast, in the assay with MOLT-4 leukemia, in the assay on CCRF-CEM leukemia, in the assay with 786-0 renal and with NCI-H23 lung was more than 100 µM in each case. For the same molecule, the TGI in the assay with SK-MEL-2 melanoma, with SR leukemia, in the assay with TK-10 renal, with MCF7 breast and in the assay with NCI/ADR-RES ovarian was more than 100 µM each time.
For the molecule `CC(=O)N1c2ccccc2C(C)C1c1[nH]c2ccccc2c1C` (stereo not given), the TGI with SW-620 colon was more than 100 µM; in the assay on HS 578T breast it was 42.4 µM; with MOLT-4 leukemia it was 77.3 µM; in the assay with CCRF-CEM leukemia, more than 100 µM; in the assay on 786-0 renal, 39.9 µM; with NCI-H23 lung it was more than 100 µM. Further, the TGI in the assay on SK-MEL-2 melanoma was 40.2 µM; in the assay with SR leukemia, 51.8 µM; with TK-10 renal it was 76.1 µM; in the assay with MCF7 breast it was more than 100 µM; in the assay on NCI/ADR-RES ovarian it was more than 100 µM.
Regarding `CCOC(=O)Cn1c(=O)c2cc(-c3ccccc3)cc3c(Cl)nc4c(OC)c(OC)cc1c4c32`, the TGI in the assay with SW-620 colon is more than 61.2 µM; in the assay with HS 578T breast, more than 27.7 µM; in the assay on MOLT-4 leukemia, 14.2 µM; in the assay on CCRF-CEM leukemia, more than 56.9 µM; with 786-0 renal, more than 100 µM; in the assay on NCI-H23 lung it was 36.2 µM. The TGI is 35.4 µM in the assay on SK-MEL-2 melanoma; more than 100 µM in the assay on SR leukemia; 99.4 µM with TK-10 renal; 22.7 µM in the assay with MCF7 breast; 56.5 µM in the assay with NCI/ADR-RES ovarian.
Consider `c1ccc(-c2cc(-c3cccs3)c(-c3cccs3)o2)cc1`, for which the TGI in the assay on SW-620 colon, in the assay with HS 578T breast, in the assay on MOLT-4 leukemia, in the assay on CCRF-CEM leukemia, in the assay on 786-0 renal and with NCI-H23 lung was more than 100 µM each time. Further, the TGI in the assay on SK-MEL-2 melanoma, with SR leukemia, with TK-10 renal, in the assay on MCF7 breast and in the assay with NCI/ADR-RES ovarian was more than 100 µM each time.
`S=C(Nc1ccccn1)Nc1ccccc1Cl`: the TGI in the assay with SW-620 colon was more than 100 µM; in the assay with HS 578T breast it was more than 52.2 µM; in the assay with MOLT-4 leukemia it was more than 100 µM; in the assay on CCRF-CEM leukemia, more than 100 µM; with 786-0 renal it was more than 100 µM; with NCI-H23 lung it was more than 100 µM. Further, the TGI with SK-MEL-2 melanoma, with SR leukemia, in the assay on TK-10 renal, in the assay with MCF7 breast and in the assay on NCI/ADR-RES ovarian was more than 100 µM throughout.
Turning to `O=C(OCCC12CC3CC(CC(C3)C1)C2)c1ccc(NCc2cc(O)ccc2O)cc1`, the TGI with SW-620 colon was determined as 6.56 µM; with HS 578T breast it was 0.542 µM; in the assay on MOLT-4 leukemia, 10.3 µM; with CCRF-CEM leukemia, 15.9 µM; in the assay on 786-0 renal it was 4.73 µM; in the assay with NCI-H23 lung, 3.28 µM. Moreover, the TGI in the assay with SK-MEL-2 melanoma was 2.83 µM; in the assay with SR leukemia, 4.43 µM; in the assay with TK-10 renal, 4.65 µM; in the assay on MCF7 breast, more than 100 µM; in the assay on NCI/ADR-RES ovarian it was 11.1 µM.
As to `NC1CC(=O)c2sccc21` (stereo not given), the TGI in the assay with SW-620 colon, in the assay on HS 578T breast, with MOLT-4 leukemia, in the assay with CCRF-CEM leukemia, in the assay on 786-0 renal and with NCI-H23 lung was more than 100 µM each time. The TGI with SK-MEL-2 melanoma was 79.3 µM; with SR leukemia, more than 100 µM; in the assay with TK-10 renal, more than 100 µM; in the assay with MCF7 breast, more than 100 µM; with NCI/ADR-RES ovarian it was more than 100 µM.
